Data from patent US10231969B2, “Anti-neoplastic combinations and dosing regimens using CDK4/6 inhibitor compounds to treat RB-positive tumors” (G1 Therapeutics, Inc., priority 2014, dated 2019).
Read-outs that look alike come from different tables or passages of the source. One block for each compound: values may come before it.

Tests used:
[1] = test system: A2058 (human metastatic melanoma cells—Rb-negative); experiment: Cellular proliferation assay (CellTiter-Glo), A2058; type: cell-based; details: A2058, 144 h, six days
Procedure: (§1) Cellular proliferation assays were further conducted using the following cancer cell lines: MCF7 (breast adenocarcinoma—Rb-positive), ZR-75-1 (breast ductal carcinoma—Rb-positive), H69 (human small cell lung cancer—Rb-negative) cells, or A2058 (human metastatic melanoma cells—Rb-negative). These cells were seeded in Costar (Tewksbury, Mass.) 3093 96 well tissue culture treated white walled/clear bottom plates. Cells were treated with the compounds of Table 1 as nine point dose response dilution series from 10 uM to 1 nM. Cells were exposed to compounds and then cell viability was determined after either four (H69) or six (MCF7, ZR75-1, A2058) days as indicated using the CellTiter-Glo® luminescent cell viability assay (CTG; Promega, Madison, Wis., United States of America) following the manufacturer's recommendations. Plates were read on BioTek (Winooski, Vt.) Syngergy2 multi-mode plate reader. The Relative Light Units (RLU) were plotted as a result of variable molar concentration and data was analyzed using Graphpad (LaJolla, Calif.) Prism 5 statistical software to determine the EC50 for each compound.

CDK2/CyclinA = target: T1, CDK2/CyclinA (Homo sapiens, UniProt P24941); experiment: CDK2/CycA kinase assay (Nanosyn, Caliper microfluidic); type: biochemical; details: Table 2; for IC50: ATP 50 μM
T1 construct: Nanosyn (Santa Clara, Calif.) ran the assay as a service
Procedure: (§2) Selected compounds disclosed herein were tested in CDK4/cyclinD1, CDK2/CycA and CDK2/cyclinE kinase assays by Nanosyn (Santa Clara, Calif.) to determine their inhibitory effect on these CDKs. The assays were performed using microfluidic kinase detection technology (Caliper Assay Platform). The compounds were tested in 12-point dose-response format in singlicate at Km for ATP. Phosphoacceptor substrate peptide concentration used was 1 μM for all assays and Staurosporine was used as the reference compound for all assays. Specifics of each assay are as described below:
CDK2/CyclinA: Enzyme concentration: 0.2 nM; ATP concentration: 50 μM; Incubation time: 3 hr.

CDK4/CyclinD1 = CDK4/CyclinD1 (Homo sapiens, UniProt P11802); experiment: CDK4/cyclinD1 kinase assay (Nanosyn, Caliper microfluidic); type: biochemical; details: read-out: CDK4/CycD1 IC50
Procedure: as §2
CDK4/CyclinD1: Enzyme concentration: 1 nM; ATP concentration: 200 μM; Incubation time: 10 hr.

[2] = test system: H69 (human small cell lung cancer—Rb-negative) cells; experiment: Cellular proliferation assay (CellTiter-Glo), H69; type: cell-based; details: NCI-H69, 96 h, four days
Procedure: as §1

[3] = test system: HS68 cells (human skin fibroblast cell line (Rb-positive)); experiment: G1 arrest (cellular G1 and S-phase) assay; type: cell-based
Procedure: The fraction of cells in G0-G1 DNA cell cycle versus the fraction in S-phase DNA cell cycle was determined using FlowJo 7.2.2 analysis.
The compounds listed in Table 1 were tested for their ability to arrest HS68 cells at the G1 phase of the cell cycle.

CDK2/CyclinE = target: T2, CDK2/CyclinE (Homo sapiens, UniProt P24941); experiment: CDK2/cyclinE kinase assay (Nanosyn, Caliper microfluidic); type: biochemical; details: Table 2; for IC50: ATP 100 μM, read-out: CDK2/CycE IC50
T2 construct: Nanosyn (Santa Clara, Calif.) ran the assay as a service
Procedure: as §2, with “assays.” for “assays. Specifics of each assay are as described below:”

[4] = test system: MCF7 (breast adenocarcinoma—Rb-positive); experiment: Cellular proliferation assay (CellTiter-Glo), MCF7; type: cell-based; details: Homo sapiens, MCF7, 144 h, six days
Procedure: as §1

[5] = Peripheral blood CBC on day 14 in MCF7 implant model; type: in vivo, Immunodeficient mice; details: Day 14, 100 mg/kg PO QD
Source text: Specific cell counts analyzed were white blood cells (WBC: FIG. 21A), lymphocytes (FIG. 21B), neutrophils (FIG. 21C), monocytes (FIG. 21D), platelets (FIG. 21E), and red blood cells (FIG. 21F).

[6] = test system: 456 (395 non-mutant) kinases; experiment: DiscoveRx KINOMEscan profiling; type: binding; details: 1000 nM
[7] = test system: tHS68 (CDK4/6-dependent; Rb-positive); experiment: Cell cycle arrest, propidium iodide flow cytometry, tHS68; type: cell-based; details: tHS68, 24 hours, highest concentration shown (28% at baseline)
Source text: To test the ability of CDK4/6 inhibitors to induce a clean G1-arrest in Rb-positive cells, a cell based screening method was used consisting of two CDK4/6-dependent cell lines (tHS68 and WM2664; Rb-positive) and one CDK4/6-independent (A2058; Rb-negative) cell line. […] At the conclusion of the experiment, cells were harvested, fixed, and stained with propidium iodide (a DNA intercalator), which fluoresces strongly red (emission maximum 637 nm) when excited by 488 nm light. Samples were run on Dako Cyan flow cytometer and >10,000 events were collected for each sample. Data were analyzed using FlowJo 2.2 software developed by TreeStar, Inc.

[8] = test system: Rb phosphorylation (Ser780, Ser807/811) in tHS68; experiment: Rb phosphorylation western blot, tHS68; type: cell-based; details: tHS68, 300 nM, by 16 hours post exposure
Procedure: (§3) The CDK4/6-cyclin D complex is essential for progression from G1 to the S-phase of the DNA cell cycle. This complex phosphorylates the retinoblastoma tumor suppressor protein (Rb). […] Samples were lysed and protein was assayed by western blot analysis. Rb phosphorylation was measured at two sites targeted by the CDK4/6-cyclin D complex, Ser780 and Ser807/811 using species specific antibodies.

[9] = test system: bone marrow proliferating cells; experiment: EdU incorporation in hematopoietic cells after i.p. dose; type: in vivo, C57BL/6 female mice; details: single i.p. dose 50 mg/kg or 100 mg/kg
Procedure: At the designated time: 30 min, 1 h, 2 h, 4 h, 6 h, 8 h, 12 h, 18 h, 24 h or 48 h, mice received an injection of 5′-ethynyl-2′-deoxyuridine (EdU). Two hours post EdU injection, mice were sacrificed. As illustrated in FIGS. 12-19, cell lines were isolated and incorporation of EdU was measured. Hematopoietic cell lineages were identified using known cell lineage markers. (See, for example, Challen, et al. “Mouse Hematopoietic Stem Cell Identification and Analysis”, Cytometry A. (2009) 75(1): 14-24).

[10] = test system: Rb phosphorylation (Ser780, Ser807/811) in WM2664; experiment: Rb phosphorylation western blot, WM2664; type: cell-based; details: WM2664, 300 nM, by 16 hours post exposure
Procedure: as §3

[11] = test system: ZR-75-1 (breast ductal carcinoma—Rb-positive); experiment: Cellular proliferation assay (CellTiter-Glo), ZR-75-1; type: cell-based; details: Homo sapiens, ZR-75-1, 144 h, six days, read-out: ZR75-1 Cellular EC50
Procedure: as §1

[12] = test system: ER+, HER2− locally advanced or metastatic breast cancer; details: post-menopausal women, at time of final PFS analysis; cited from earlier work

CDK4/CyclinD1, sequence (P11802 whole entry): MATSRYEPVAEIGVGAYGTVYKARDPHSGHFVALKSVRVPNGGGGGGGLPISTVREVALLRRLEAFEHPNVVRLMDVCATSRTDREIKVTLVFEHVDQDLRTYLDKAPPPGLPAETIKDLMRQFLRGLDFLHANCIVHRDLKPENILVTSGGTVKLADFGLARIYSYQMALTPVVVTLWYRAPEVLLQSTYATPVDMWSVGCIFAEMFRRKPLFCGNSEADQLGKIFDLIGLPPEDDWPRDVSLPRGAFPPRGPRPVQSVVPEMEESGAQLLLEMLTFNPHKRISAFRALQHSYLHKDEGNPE
CDK4/CyclinD1, sequence (P24385 whole entry partner): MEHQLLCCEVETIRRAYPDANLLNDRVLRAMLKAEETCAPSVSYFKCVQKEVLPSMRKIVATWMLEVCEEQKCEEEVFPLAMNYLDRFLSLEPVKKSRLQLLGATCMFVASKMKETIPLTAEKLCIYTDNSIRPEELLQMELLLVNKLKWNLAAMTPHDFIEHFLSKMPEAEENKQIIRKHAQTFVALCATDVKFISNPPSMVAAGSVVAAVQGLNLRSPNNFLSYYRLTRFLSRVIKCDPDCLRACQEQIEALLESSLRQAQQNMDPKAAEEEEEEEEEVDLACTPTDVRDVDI

SMILES: CN1CCN(C(=O)c2ccc(Cc3ncc4cc5n(c4n3)C3(CCCC3)CNC5=O)nc2)CC1 [BBB]
EC50 [1]: > 3000 nM | IC50 (CDK2/CyclinA): 85 nM | Fold Selectivity (CDK2/CycA/CDK4) (CDK2/CyclinA; ratio of IC50s): 31 | IC50 (CDK4/CyclinD1; Table 2, ATP at Km (200 μM)): 2.8 nM | EC50 [2]: > 3000 nM | EC50 [3]: 230 nM | IC50 (CDK2/CyclinE): 187 nM | Fold Selectivity (CDK2/CycE/CDK4) (CDK2/CyclinE; ratio of IC50s): 68 | EC50 [4]: 123 nM

SMILES: CC(C)N1CCN(c2ccc(Nc3ncc4cc5n(c4n3)C3(CCCCC3)CNC5=O)nc2)CC1 [Compound GG]
lymphocyte count [5]: reduced cell counts | neutrophil count [5]: reduced cell counts | platelet count [5]: reduced cell counts | red blood cell count [5]: reduced cell counts | white blood cell count [5]: reduced cell counts | IC50 (CDK4/CyclinD1; Table 3): 1.06 nM | IC50 (CDK4/CyclinD1): 1 nM

SMILES: CN1CCN(c2ccc(Nc3ncc4cc5n(c4n3)C3(CCCCC3)CNC5=O)nc2)CC1 [Compound T]
number of 395 non-mutant kinases inhibited ([6]; inhibitory threshold of 65%): 92 | share of 395 non-mutant kinases inhibited ([6]; inhibitory threshold of 65%): 23.3% | number of 395 non-mutant kinases inhibited ([6]; inhibitory threshold of 90%): 31 | share of 395 non-mutant kinases inhibited ([6]; inhibitory threshold of 90%): 7.8% | number of 395 non-mutant kinases inhibited ([6]; inhibitory threshold of 99%): 6 | share of 395 non-mutant kinases inhibited ([6]; inhibitory threshold of 99%): 1.5% | cells in S-phase [7]: 6% | Rb phosphorylation [8]: blocks Rb phosphorylation | EdU incorporation, bone marrow [9]: dose and time dependent reduction and recovery of proliferating cells | Rb phosphorylation [10]: blocks Rb phosphorylation

SMILES: CCN1[C@H](C)CN(c2ccc(Nc3ncc4cc5n(c4n3)C3(CCCCC3)CNC5=O)nc2)C[C@@H]1C [FF]
IC50 (CDK4/CyclinD1; Table 2, ATP at Km (200 μM)): 1.2 nM

SMILES: CCN(CC)C1CCN(c2ccc(Nc3ncc4cc5n(c4n3)C3(CCCCC3)CNC5=O)nc2)C1 (stereo not drawn) [QQ]
EC50 [3]: 120 nM

SMILES: CCN(CC)C1CCN(c2ccc(Nc3ncc4cc5n(c4n3)C3(CCCC3)CNC5=O)nc2)C1 (stereo not drawn) [UU]
EC50 [3]: 300 nM

SMILES: O=C1NCC2(CCCC2)n2c1cc1cnc(Nc3ccc(N4CCC(N5CCOCC5)CC4)cn3)nc12 [WW]
EC50 [3]: 400 nM

SMILES: N#Cc1ccc(C(c2ccc(C#N)cc2)n2cncn2)cc1 [letrozole]
median OS [12]: 33.3 months

Further lines, with some results ahead:

IC50 (CDK4/CyclinD1; Table 2, ATP at Km (200 μM)): 0.7 nM
SMILES: C[C@@H]1CN(c2ccc(Nc3ncc4cc5n(c4n3)C3(CCCCC3)CNC5=O)nc2)CCN1C[C@@H](C)O [J]

IC50 (CDK4/CyclinD1; Table 2, ATP at Km (200 μM)): 5.7 nM
SMILES: CC(C)N1CCN(c2ccc(Nc3ncc4cc5n(c4n3)C3(CCCCC3)CNC5=O)nc2)C[C@H]1C [L]

IC50 (CDK4/CyclinD1; Table 2, ATP at Km (200 μM)): 3.2 nM
SMILES: CCOCCN1CCN(c2ccc(Nc3ncc4cc5n(c4n3)C3(CCCC3)CNC5=O)nc2)CC1 [MMM]

IC50 (CDK4/CyclinD1; Table 2, ATP at Km (200 μM)): 2.3 nM
SMILES: C[C@H]1CN(c2ccc(Nc3ncc4cc5n(c4n3)C3(CCCCC3)CNC5=O)nc2)CCN1CCC(C)(C)C [M]

EC50 [1]: > 3000 nM | IC50 (CDK2/CyclinA): 570 nM | IC50 (CDK4/CyclinD1; Table 2, ATP at Km (200 μM)): 9 nM | EC50 [2]: > 3000 nM | EC50 [11]: 229 nM | IC50 (CDK2/CyclinE): 3980 nM | EC50 [4]: 120 nM
SMILES: CC1CN(c2ccc(Nc3ncc4cc5n(c4n3)C3(CCCCC3)CNC5=O)nc2)C[C@@H](C)N1CC1CC1 (stereo partly drawn) [OO]
EC50 [3]: 95 nM

IC50 (CDK2/CyclinA): 2640 nM | IC50 (CDK4/CyclinD1; Table 2, ATP at Km (200 μM)): 0.8 nM | IC50 (CDK2/CyclinE): 16500 nM
SMILES: CC1CN(c2ccc(Nc3ncc4cc5n(c4n3)C3(CCCC3)CNC5=O)nc2)CCN1CCC(C)(C)C (stereo not drawn) [PPP]

IC50 (CDK4/CyclinD1; Table 2, ATP at Km (200 μM)): 1.7 nM
SMILES: C[C@@H](O)CN1CCN(c2ccc(Nc3ncc4cc5n(c4n3)C3(CCCCC3)CNC5=O)nc2)CC1 [S]

IC50 (CDK4/CyclinD1; Table 2, ATP at Km (200 μM)): 18 nM
SMILES: CC(C)[C@H]1CNC(=O)c2cc3cnc(Nc4ccc(N5CCNCC5)cn4)nc3n21 [UUU]
